# Data reported in PubChem BioAssay AID248 (DTP/NCI, 2004).
# “And” between values parts separate entries of the source, which are not always exact repeats. Equal values may be shown once. Inconclusive results and toxic doses are left out.
# System: L1210 leukemia ip in BDF1 mice, survival T/C
# Assay: NCI In Vivo Anticancer Drug Screen. Data for tumor model L1210 Leukemia (intraperitoneal) in B6D2F1 (BDF1) mice
# Details: endpoint: mean survival time, higher = longer survival
# Method in brief: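 Ratio derived from survival: compound-dosed mice over vehicle-dosed mice, all bearing a transplantable tumor.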
# [1] = dose: 100.0 mg/kg/injection, schedule: Q04DX003 (ip), vehicle: saline
# [2] = dose: 200.0 mg/kg/injection, schedule: Q04DX003 (ip), vehicle: saline
# [3] = dose: 400.0 mg/kg/injection, schedule: Q04DX003 (ip), vehicle: saline
# [4] = dose: 100.0 mg/kg/injection, schedule: Q01DX001 (ip), vehicle: saline
# [5] = dose: 200.0 mg/kg/injection, schedule: Q01DX001 (ip), vehicle: saline
# [6] = dose: 400.0 mg/kg/injection, schedule: Q01DX001 (ip), vehicle: saline
# [7] = dose: 100.0 mg/kg/injection, schedule: Q01DX001 (ip), vehicle: Klucel (hydroxypropylcellulose) (HPC)
# [8] = dose: 200.0 mg/kg/injection, schedule: Q01DX001 (ip), vehicle: Klucel (hydroxypropylcellulose) (HPC)
# [9] = dose: 50.0 mg/kg/injection, schedule: Q01DX001 (ip), vehicle: saline
# [10] = dose: 100.0 mg/kg/injection, schedule: Q04DX003 (ip), vehicle: saline with Tween-80
# [11] = dose: 200.0 mg/kg/injection, schedule: Q04DX003 (ip), vehicle: saline with Tween-80
# [12] = dose: 400.0 mg/kg/injection, schedule: Q04DX003 (ip), vehicle: saline with Tween-80
# [13] = dose: 100.0 mg/kg/injection, schedule: Q01DX009 (ip), vehicle: Klucel (hydroxypropylcellulose) (HPC)
# [14] = dose: 200.0 mg/kg/injection, schedule: Q01DX009 (ip), vehicle: Klucel (hydroxypropylcellulose) (HPC)
# [15] = dose: 100.0 mg/kg/injection, schedule: Q04DX003 (ip), vehicle: Klucel (hydroxypropylcellulose) (HPC)
# [16] = dose: 200.0 mg/kg/injection, schedule: Q04DX003 (ip), vehicle: Klucel (hydroxypropylcellulose) (HPC)
# [17] = dose: 400.0 mg/kg/injection, schedule: Q01DX009 (ip), vehicle: Klucel (hydroxypropylcellulose) (HPC)
# [18] = dose: 400.0 mg/kg/injection, schedule: Q04DX003 (ip), vehicle: Klucel (hydroxypropylcellulose) (HPC)
structure (smiles),measurement,setting,value
COc1cc(N(CCCl)CCCl)c(OC)cc1C=Nc1ccc(-c2csc(Cc3ccccc3)n2)c(Cl)c1,T/C,"dose: 12.5 mg/kg/injection, schedule: Q01DX001 (ip), vehicle: carboxymethylcellulose (CMC)",115 % of control
same,T/C,"dose: 25.0 mg/kg/injection, schedule: Q01DX001 (ip), vehicle: carboxymethylcellulose (CMC)",105 % of control
same,T/C,"dose: 50.0 mg/kg/injection, schedule: Q01DX001 (ip), vehicle: carboxymethylcellulose (CMC)",108 % of control
same,T/C,"dose: 88.0 mg/kg/injection, schedule: Q01DX001 (ip), vehicle: carboxymethylcellulose (CMC)",115 % of control
same,T/C,"dose: 88.0 mg/kg/injection, schedule: Q01DX009 (ip), vehicle: carboxymethylcellulose (CMC)",110 % of control
same,T/C,"dose: 133.0 mg/kg/injection, schedule: Q01DX009 (ip), vehicle: carboxymethylcellulose (CMC)",94 % of control
same,T/C,"dose: 150.0 mg/kg/injection, schedule: Q01DX001 (ip), vehicle: carboxymethylcellulose (CMC)",153 % of control
same,T/C,"dose: 300.0 mg/kg/injection, schedule: Q01DX001 (ip), vehicle: carboxymethylcellulose (CMC)",176 % of control and 182 % of control
CCOC(=O)C(Br)C(Br)c1ccccc1 (configuration not stated),T/C,[1],103 % of control
same,T/C,[2],108 % of control
same,T/C,[3],98 % of control
CC(=O)Oc1ccc(C2CC(=O)N(CCN(C)C)C2=O)cc1 (configuration not stated),T/C,[4],107 % of control
same,T/C,[5],90 % of control
same,T/C,[6],100 % of control
c1ccc2cc(B(c3cccc4ccccc34)c3cccc4ccccc34)ccc2c1,T/C,"dose: 12.5 mg/kg/injection, schedule: Q04DX002 (ip), vehicle: saline with Tween-80",102 % of control
same,T/C,"dose: 25.0 mg/kg/injection, schedule: Q04DX002 (ip), vehicle: saline with Tween-80",94 % of control
same,T/C,"dose: 50.0 mg/kg/injection, schedule: Q04DX002 (ip), vehicle: saline with Tween-80",105 % of control
CC(=N)/C(C(=O)NC1CCCCC1)=C(/C)O,T/C,"dose: 100.0 mg/kg/injection, schedule: Q01DX009 (ip), vehicle: saline",101 % of control
same,T/C,[1],104 % of control
same,T/C,"dose: 200.0 mg/kg/injection, schedule: Q01DX009 (ip), vehicle: saline",103 % of control
same,T/C,[2],109 % of control
same,T/C,"dose: 400.0 mg/kg/injection, schedule: Q01DX009 (ip), vehicle: saline",93 % of control
same,T/C,[3],96 % of control
CCCCCCCCCCCCOc1ccccc1OC,T/C,[7],89 % of control
same,T/C,[8],90 % of control
same,T/C,"dose: 400.0 mg/kg/injection, schedule: Q01DX001 (ip), vehicle: Klucel (hydroxypropylcellulose) (HPC)",95 % of control
CCC1CCCC1=O (configuration not stated),T/C,[9],95 % of control
same,T/C,[5],90 % of control
CC(=O)Oc1ccc2c(c1)C1(C)CCCC(C)(C(=O)O)C1CC2 (configuration not stated),T/C,[10],92 % of control
same,T/C,[11],97 % of control
same,T/C,[12],94 % of control
O=[N+]([O-])c1cc(Cl)ccc1S(=O)(=O)c1ccccc1,T/C,"dose: 50.0 mg/kg/injection, schedule: Q01DX009 (ip), vehicle: Klucel (hydroxypropylcellulose) (HPC)",99 % of control
same,T/C,[13],99 % of control
same,T/C,[14],108 % of control
CCOC(=O)C1(O)CSC(O)(C(=O)OCC)CS1 (configuration not stated),T/C,"dose: 100.0 mg/kg/injection, schedule: Q01DX001 (ip), vehicle: other",101 % of control
same,T/C,"dose: 200.0 mg/kg/injection, schedule: Q01DX001 (ip), vehicle: other",97 % of control
same,T/C,"dose: 400.0 mg/kg/injection, schedule: Q01DX001 (ip), vehicle: other",92 % of control
CC(C)(C)OC(=O)N/N=C/c1ccc2c(c1)CCC2,T/C,[10],100 % of control
same,T/C,[11],100 % of control
same,T/C,[12],94 % of control
CCCC(C1=CC(C)(C)c2ccccc2C1=O)c1ccc(Br)cc1 (configuration not stated),T/C,[13],108 % of control
same,T/C,[15],110 % of control
same,T/C,[14],106 % of control
same,T/C,[16],113 % of control
same,T/C,[17],103 % of control
same,T/C,[18],106 % of control
CCC(=O)c1ccc2c(c1)N(CCCN1CCN(CCO)CC1)c1ccccc1S2,T/C,"dose: 1.56 mg/kg/injection, schedule: Q03HX024 (ip), vehicle: saline",114 % of control
same,T/C,"dose: 3.12 mg/kg/injection, schedule: Q03HX024 (ip), vehicle: saline",101 % of control
same,T/C,"dose: 4.0 mg/kg/injection, schedule: Q01DX009 (ip), vehicle: saline",101 % of control
same,T/C,"dose: 6.25 mg/kg/injection, schedule: Q01DX009 (ip), vehicle: saline",104 % of control
same,T/C,"dose: 6.25 mg/kg/injection, schedule: Q03HX024 (ip), vehicle: saline",110 % of control
same,T/C,"dose: 6.25 mg/kg/injection, schedule: Q04DX003 (ip), vehicle: saline",113 % of control
same,T/C,"dose: 8.0 mg/kg/injection, schedule: Q01DX009 (ip), vehicle: saline",105 % of control
same,T/C,"dose: 12.5 mg/kg/injection, schedule: Q04DX003 (ip), vehicle: saline",93 % of control
same,T/C,"dose: 18.75 mg/kg/injection, schedule: Q01DX001 (ip), vehicle: saline",110 % of control
same,T/C,"dose: 25.0 mg/kg/injection, schedule: Q04DX003 (ip), vehicle: saline",98 % of control
same,T/C,"dose: 32.0 mg/kg/injection, schedule: Q01DX009 (ip), vehicle: saline",90 % of control
same,T/C,"dose: 37.5 mg/kg/injection, schedule: Q01DX001 (ip), vehicle: saline",103 % of control
same,T/C,"dose: 50.0 mg/kg/injection, schedule: Q04DX003 (ip), vehicle: saline",95 % of control
same,T/C,"dose: 75.0 mg/kg/injection, schedule: Q01DX001 (ip), vehicle: saline",119 % of control
same,T/C,[1],115 % of control
c1ccc2c(c1)sc1cc3ccncc3cc12,T/C,"dose: 75.0 mg/kg/injection, schedule: Q01DX001 (ip), vehicle: other",110 % of control
same,T/C,"dose: 150.0 mg/kg/injection, schedule: Q01DX001 (ip), vehicle: other",101 % of control
same,T/C,"dose: 300.0 mg/kg/injection, schedule: Q01DX001 (ip), vehicle: other",107 % of control
O=C(Nc1ccccc1C(F)(F)F)N(Cc1ccccc1)c1ccccc1,T/C,[13],93 % of control
same,T/C,[14],92 % of control
same,T/C,[17],98 % of control
COC(=O)/C(=C\c1ccccc1)CN1CCCCC1,T/C,"dose: 25.0 mg/kg/injection, schedule: Q01DX001 (ip), vehicle: saline with Tween-80",101 % of control
same,T/C,"dose: 50.0 mg/kg/injection, schedule: Q01DX001 (ip), vehicle: saline with Tween-80",93 % of control
same,T/C,"dose: 100.0 mg/kg/injection, schedule: Q01DX001 (ip), vehicle: saline with Tween-80",104 % of control
CCCCSc1ncnc2c1ncn2C1CCCCO1 (configuration not stated),T/C,[9],102 % of control
same,T/C,[4],104 % of control
same,T/C,"dose: 100.0 mg/kg/injection, schedule: Q01DX009 (ip), vehicle: saline sonified",94 % of control
same,T/C,[15],103 % of control
same,T/C,[5],102 % of control
same,T/C,"dose: 200.0 mg/kg/injection, schedule: Q01DX009 (ip), vehicle: saline sonified",90 % of control
same,T/C,[16],113 % of control
same,T/C,[6],113 % of control
same,T/C,"dose: 400.0 mg/kg/injection, schedule: Q01DX009 (ip), vehicle: saline sonified",113 % of control
same,T/C,[18],124 % of control
CN(C)/N=N/c1nc[nH]c1C(N)=O.[Cl][Cu][Cl],T/C,"dose: 9.5 mg/kg/injection, schedule: Q01DX001 (ip), vehicle: saline",103 % of control
same,T/C,"dose: 19.0 mg/kg/injection, schedule: Q01DX001 (ip), vehicle: saline",95 % of control
same,T/C,"dose: 38.0 mg/kg/injection, schedule: Q01DX001 (ip), vehicle: saline",101 % of control
N/N=C1/CCc2ccccc21,T/C,[7],90 % of control
same,T/C,[8],112 % of control
N#Cc1ccc(CCc2ccc(Cl)cc2)cc1,T/C,[9],94 % of control
same,T/C,[4],95 % of control
same,T/C,[5],101 % of control
same,T/C,[6],92 % of control
CCOc1ccc(NC(=O)C(Br)C(Br)C(=O)O)cc1 (configuration not stated),T/C,[13],94 % of control
same,T/C,[14],98 % of control
same,T/C,[17],100 % of control
